{"source": "patent US9340590B2", "about": "(priority 2011, dated 2016)", "assay_in_all_cases": "cell-based", "key": {"hNav1.7 [1]": {"target": "T1, hNav1.7 (Homo sapiens, UniProt Q15858)", "T1 sequence (Q15858 whole entry, looked up)": "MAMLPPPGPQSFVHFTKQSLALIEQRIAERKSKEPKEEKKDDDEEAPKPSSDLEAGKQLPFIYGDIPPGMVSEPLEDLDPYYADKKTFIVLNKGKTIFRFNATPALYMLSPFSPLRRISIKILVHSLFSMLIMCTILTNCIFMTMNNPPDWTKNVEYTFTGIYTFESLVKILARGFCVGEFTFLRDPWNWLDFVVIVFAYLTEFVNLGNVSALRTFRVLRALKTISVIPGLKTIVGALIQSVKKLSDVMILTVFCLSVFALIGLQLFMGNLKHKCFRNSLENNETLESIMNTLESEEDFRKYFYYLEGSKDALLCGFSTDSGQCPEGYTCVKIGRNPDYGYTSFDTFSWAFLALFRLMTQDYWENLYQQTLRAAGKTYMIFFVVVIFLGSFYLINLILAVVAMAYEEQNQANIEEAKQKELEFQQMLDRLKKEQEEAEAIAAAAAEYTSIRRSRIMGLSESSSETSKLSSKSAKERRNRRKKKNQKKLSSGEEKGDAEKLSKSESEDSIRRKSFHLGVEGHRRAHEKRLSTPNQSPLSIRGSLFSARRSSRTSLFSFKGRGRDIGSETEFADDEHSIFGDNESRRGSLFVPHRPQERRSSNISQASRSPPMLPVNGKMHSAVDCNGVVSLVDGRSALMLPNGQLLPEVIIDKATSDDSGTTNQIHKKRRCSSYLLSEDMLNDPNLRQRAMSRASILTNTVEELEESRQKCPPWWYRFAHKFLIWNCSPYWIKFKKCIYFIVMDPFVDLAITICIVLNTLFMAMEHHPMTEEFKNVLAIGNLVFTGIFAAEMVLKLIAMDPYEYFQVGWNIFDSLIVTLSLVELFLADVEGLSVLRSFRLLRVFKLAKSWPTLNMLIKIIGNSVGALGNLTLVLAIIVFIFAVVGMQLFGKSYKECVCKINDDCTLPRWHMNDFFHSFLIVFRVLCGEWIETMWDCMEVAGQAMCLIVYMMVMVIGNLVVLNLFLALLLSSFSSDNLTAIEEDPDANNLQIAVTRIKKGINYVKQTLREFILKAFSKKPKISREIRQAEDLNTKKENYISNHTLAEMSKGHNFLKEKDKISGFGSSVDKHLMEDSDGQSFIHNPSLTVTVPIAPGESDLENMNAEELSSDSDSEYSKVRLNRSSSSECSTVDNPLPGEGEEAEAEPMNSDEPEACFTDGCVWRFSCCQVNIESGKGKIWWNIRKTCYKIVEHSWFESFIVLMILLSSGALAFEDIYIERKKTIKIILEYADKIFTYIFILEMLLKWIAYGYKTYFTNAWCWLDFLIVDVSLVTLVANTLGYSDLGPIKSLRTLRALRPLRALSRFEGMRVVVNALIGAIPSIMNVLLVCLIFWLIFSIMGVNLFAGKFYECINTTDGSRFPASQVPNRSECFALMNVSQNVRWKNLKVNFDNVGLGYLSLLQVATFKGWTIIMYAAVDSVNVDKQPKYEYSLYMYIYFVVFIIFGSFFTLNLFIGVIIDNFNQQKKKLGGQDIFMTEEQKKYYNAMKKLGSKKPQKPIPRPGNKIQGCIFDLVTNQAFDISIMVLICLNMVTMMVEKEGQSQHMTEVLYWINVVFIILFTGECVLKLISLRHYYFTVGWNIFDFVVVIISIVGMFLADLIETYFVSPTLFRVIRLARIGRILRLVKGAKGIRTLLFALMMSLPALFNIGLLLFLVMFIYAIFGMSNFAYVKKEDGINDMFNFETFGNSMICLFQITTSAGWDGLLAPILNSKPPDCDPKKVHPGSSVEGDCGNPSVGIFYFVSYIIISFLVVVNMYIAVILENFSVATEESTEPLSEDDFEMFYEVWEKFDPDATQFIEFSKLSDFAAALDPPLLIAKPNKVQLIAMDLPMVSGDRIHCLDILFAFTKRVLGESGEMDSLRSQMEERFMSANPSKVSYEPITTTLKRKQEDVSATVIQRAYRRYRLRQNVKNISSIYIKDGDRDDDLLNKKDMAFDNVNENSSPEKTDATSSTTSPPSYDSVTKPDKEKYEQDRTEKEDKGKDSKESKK", "conditions": "Nav1.7 Use IC50"}, "hNav1.5 [2]": {"target": "T2, hNav1.5 (Homo sapiens, UniProt Q14524)", "conditions": "IonWorks Quattro; clamped to −110 mV, depolarized to −10 mV, 5 min after compound; n=2; read-out: IWQ Use Nav1.5"}, "hNav1.5 [3]": {"target": "T2, hNav1.5"}, "hNav1.7 [4]": {"target": "T1, hNav1.7", "assay_type": "cell-based", "conditions": "IonWorks Quattro; clamped to −110 mV, depolarized to −10 mV, 5 min after compound; n=2; read-out: IWQ Use Nav1.7"}, "hNav1.3": {"target": "hNav1.3 (Homo sapiens, UniProt Q9NY46)", "sequence (Q9NY46 whole entry, looked up)": "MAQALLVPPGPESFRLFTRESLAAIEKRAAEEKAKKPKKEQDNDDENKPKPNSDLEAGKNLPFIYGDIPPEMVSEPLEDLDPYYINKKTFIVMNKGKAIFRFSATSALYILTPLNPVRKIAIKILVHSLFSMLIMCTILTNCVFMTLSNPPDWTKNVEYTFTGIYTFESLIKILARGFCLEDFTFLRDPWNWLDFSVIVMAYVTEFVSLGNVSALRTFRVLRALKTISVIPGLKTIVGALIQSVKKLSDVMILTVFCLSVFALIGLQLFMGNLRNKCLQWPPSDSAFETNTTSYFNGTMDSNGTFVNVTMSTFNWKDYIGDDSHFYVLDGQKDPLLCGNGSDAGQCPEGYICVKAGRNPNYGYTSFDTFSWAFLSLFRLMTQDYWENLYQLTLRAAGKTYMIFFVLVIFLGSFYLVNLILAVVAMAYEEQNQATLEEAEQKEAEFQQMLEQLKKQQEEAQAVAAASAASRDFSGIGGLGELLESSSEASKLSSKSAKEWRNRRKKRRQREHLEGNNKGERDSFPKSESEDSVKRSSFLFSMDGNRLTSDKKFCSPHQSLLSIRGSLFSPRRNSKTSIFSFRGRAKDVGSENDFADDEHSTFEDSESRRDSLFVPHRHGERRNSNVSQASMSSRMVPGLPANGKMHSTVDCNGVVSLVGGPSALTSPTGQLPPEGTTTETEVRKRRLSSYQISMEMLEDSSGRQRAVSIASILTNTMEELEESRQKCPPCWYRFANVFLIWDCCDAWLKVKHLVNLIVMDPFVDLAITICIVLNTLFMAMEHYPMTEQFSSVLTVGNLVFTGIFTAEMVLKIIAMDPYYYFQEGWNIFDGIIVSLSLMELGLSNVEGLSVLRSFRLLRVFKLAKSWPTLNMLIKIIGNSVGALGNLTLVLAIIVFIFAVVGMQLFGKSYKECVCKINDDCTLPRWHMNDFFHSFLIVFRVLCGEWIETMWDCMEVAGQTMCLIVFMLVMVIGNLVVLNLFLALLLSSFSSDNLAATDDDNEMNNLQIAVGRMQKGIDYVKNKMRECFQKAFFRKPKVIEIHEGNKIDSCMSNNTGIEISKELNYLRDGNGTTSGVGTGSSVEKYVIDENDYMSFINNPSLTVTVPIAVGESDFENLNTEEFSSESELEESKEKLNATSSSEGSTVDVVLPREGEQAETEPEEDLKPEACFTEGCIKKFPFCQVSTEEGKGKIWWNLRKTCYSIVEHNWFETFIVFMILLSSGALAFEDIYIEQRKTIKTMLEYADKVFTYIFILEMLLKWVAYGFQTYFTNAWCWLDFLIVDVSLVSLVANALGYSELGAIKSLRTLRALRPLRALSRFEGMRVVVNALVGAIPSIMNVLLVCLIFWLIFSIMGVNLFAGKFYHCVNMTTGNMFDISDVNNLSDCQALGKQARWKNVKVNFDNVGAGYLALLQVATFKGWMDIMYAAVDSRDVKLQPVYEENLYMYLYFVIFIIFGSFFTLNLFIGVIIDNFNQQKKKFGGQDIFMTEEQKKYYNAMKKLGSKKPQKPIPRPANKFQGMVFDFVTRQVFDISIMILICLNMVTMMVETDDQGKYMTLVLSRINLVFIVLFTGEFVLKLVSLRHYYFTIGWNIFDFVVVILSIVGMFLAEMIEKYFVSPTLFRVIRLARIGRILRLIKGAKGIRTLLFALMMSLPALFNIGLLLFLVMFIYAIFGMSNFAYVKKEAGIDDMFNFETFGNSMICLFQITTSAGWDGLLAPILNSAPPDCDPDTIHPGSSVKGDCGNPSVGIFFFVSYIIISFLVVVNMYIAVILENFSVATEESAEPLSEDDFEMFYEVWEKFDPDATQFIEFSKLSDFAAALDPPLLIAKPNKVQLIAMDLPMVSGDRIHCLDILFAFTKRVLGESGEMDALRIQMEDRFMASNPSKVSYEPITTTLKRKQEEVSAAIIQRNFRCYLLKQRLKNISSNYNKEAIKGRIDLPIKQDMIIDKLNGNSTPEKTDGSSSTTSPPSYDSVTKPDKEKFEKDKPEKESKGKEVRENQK", "assay_type": "cell-based", "conditions": "for pIC50: Nav1.3 Use IC50"}}, "note": "pIC50: −log10 of the molar value. Like-named read-outs stand apart in the source and are kept apart here. Positions of bridges follow the written chain, without caps; N, C: chain ends. Non-standard residues stand in square brackets, D forms with d. Residues, ends and D or L forms follow the SMILES beside them. Phe(4-I) = N[C@@H](Cc1ccc(I)cc1)C(=O)O"}
{"smiles": "CC[C@H](C)[C@@H]1NC(=O)[C@@H]2CSSC[C@@H]3NC(=O)[C@H](C(C)C)NC(=O)[C@H](CC(C)C)NC(=O)[C@H](CC(N)=O)NC(=O)[C@@H]4CCCN4C(=O)[C@H](CCCNC(=N)N)NC(=O)[C@H](CSSC[C@H](NC(=O)[C@@H](N)CC(=O)O)C(=O)N[C@@H](CC(C)C)C(=O)NCC(=O)N[C@@H](Cc4ccc(-c5ccccc5)cc4)C(=O)N[C@@H](CCSC)C(=O)N[C@@H](CCCNC(=N)N)C(=O)N[C@@H](CCCCN)C(=O)N2)NC(=O)[C@H](CSSC[C@@H](C(=O)N[C@@H](CCCCN)C(=O)N[C@@H](Cc2ccc(O)cc2)C(=O)N[C@H](C(=O)N[C@@H](Cc2ccccc2)C(N)=O)C(C)C)NC(=O)[C@H](Cc2c[nH]c4ccccc24)NC(=O)[C@H](CCCCN)NC(=O)[C@H](Cc2c[nH]cn2)NC(=O)[C@H]([C@@H](C)O)NC(=O)[C@H](CCCNC(=N)N)NC(=O)[C@H](CO)NC3=O)NC(=O)[C@H](CCCCN)NC(=O)[C@H](CC(=O)O)NC(=O)[C@H](CC(N)=O)NC(=O)[C@H](CC(=O)O)NC(=O)[C@@H]2CCCN2C1=O", "note": "[SEQ ID NO: 242]", "values": [{"measurement": "pIC50", "setting": "hNav1.7 [1]", "value": 7.21}, {"measurement": "pIC50", "setting": "hNav1.5 [2]", "value": 5.47}, {"measurement": "pIC50", "setting": "hNav1.5 [3]; read-out: Nav1.5 Use IC50", "value": 5.68}, {"measurement": "pIC50", "setting": "hNav1.7 [4]", "value": 7.22}, {"measurement": "potency against NaV1.3, in words", "setting": "hNav1.3", "value": "increased potency"}, {"measurement": "pIC50", "setting": "hNav1.3", "value": 8.52}]}
{"smiles": "CC[C@H](C)[C@@H]1NC(=O)[C@@H]2CSSC[C@@H]3NC(=O)[C@H](C(C)C)NC(=O)[C@H](CC(C)C)NC(=O)[C@H](CC(N)=O)NC(=O)[C@@H]4CCCN4C(=O)[C@H](CCCNC(=N)N)NC(=O)[C@H](CSSC[C@H](NC(=O)[C@@H](N)CC(=O)O)C(=O)N[C@@H](CC(C)C)C(=O)NCC(=O)N[C@@H](Cc4ccccc4)C(=O)N[C@@H](CCSC)C(=O)N[C@@H](CCCNC(=N)N)C(=O)N[C@@H](CCCCN)C(=O)N2)NC(=O)[C@H](CSSC[C@@H](C(=O)N[C@@H](CCCCN)C(=O)N[C@@H](Cc2ccc(O)cc2)C(=O)N[C@@H](CCC(=O)O)C(=O)N[C@@H](Cc2ccccc2)C(N)=O)NC(=O)[C@H](Cc2c[nH]c4ccccc24)NC(=O)[C@H](CCCCN)NC(=O)[C@H](Cc2cnc[nH]2)NC(=O)[C@H]([C@@H](C)O)NC(=O)[C@H](CCCNC(=N)N)NC(=O)[C@H](CO)NC3=O)NC(=O)[C@H](CCCCN)NC(=O)[C@H](CC(=O)O)NC(=O)[C@H](CC(N)=O)NC(=O)[C@H](CC(=O)O)NC(=O)[C@@H]2CCCN2C1=O", "note": "[[Glu33]GpTx-1(1-34)] (H-DCLGFMRKCIPDNDKCCRPNLVCSRTHKWCKYEF-NH2; disulfide 2-17, 9-23, 16-30)", "values": [{"measurement": "pIC50", "setting": "hNav1.7 [1]", "value": 7.57}, {"measurement": "pIC50", "setting": "hNav1.5 [3]", "value": "< 5.00"}, {"measurement": "pIC50", "setting": "hNav1.3", "value": 7.28}]}
{"smiles": "CC[C@H](C)[C@H](NC(=O)[C@H](Cc1ccc(O)cc1)NC(=O)[C@H](CCCCN)NC(=O)[C@@H]1CSSC[C@@H]2NC(=O)[C@H](CCCCN)NC(=O)[C@H](CC(=O)O)NC(=O)[C@H](CC(N)=O)NC(=O)[C@H](CC(=O)O)NC(=O)[C@@H]3CCCN3C(=O)[C@H]([C@@H](C)CC)NC(=O)[C@@H]3CSSC[C@H](NC(=O)[C@H](C(C)C)NC(=O)[C@H](CC(C)C)NC(=O)[C@H](CC(N)=O)NC(=O)[C@@H]4CCCN4C(=O)[C@H](CCCNC(=N)N)NC(=O)[C@H](CSSC[C@H](NC(=O)[C@@H](N)CC(=O)O)C(=O)N[C@@H](CC(C)C)C(=O)NCC(=O)N[C@@H](Cc4ccccc4)C(=O)N[C@@H](CCSC)C(=O)N[C@@H](CCCNC(=N)N)C(=O)N[C@@H](CCCCN)C(=O)N3)NC2=O)C(=O)N[C@@H](CO)C(=O)N[C@@H](CCCNC(=N)N)C(=O)N[C@@H]([C@@H](C)O)C(=O)N[C@@H](Cc2c[nH]cn2)C(=O)N[C@@H](CCCCN)C(=O)N[C@@H](Cc2c[nH]c3ccccc23)C(=O)N1)C(=O)N[C@@H](Cc1ccccc1)C(N)=O", "note": "[[Ile33]GpTx-1(1-34)] (H-DCLGFMRKCIPDNDKCCRPNLVCSRTHKWCKYIF-NH2; disulfide 2-17, 9-23, 16-30)", "values": [{"measurement": "pIC50", "setting": "hNav1.7 [1]", "value": 7.43}, {"measurement": "pIC50", "setting": "hNav1.5 [3]", "value": "< 5.00"}, {"measurement": "pIC50", "setting": "hNav1.3", "value": 6.99}]}
{"smiles": "CC[C@H](C)[C@@H]1NC(=O)[C@@H]2CSSC[C@@H]3NC(=O)[C@H](C(C)C)NC(=O)[C@H](CC(C)C)NC(=O)[C@H](CC(N)=O)NC(=O)[C@@H]4CCCN4C(=O)[C@H](CCCNC(=N)N)NC(=O)[C@H](CSSC[C@H](NC(=O)[C@@H](N)CC(=O)O)C(=O)N[C@@H](CC(C)C)C(=O)NCC(=O)N[C@@H](Cc4ccccc4)C(=O)N[C@@H](CCSC)C(=O)N[C@@H](CCCNC(=N)N)C(=O)N[C@@H](CCCCN)C(=O)N2)NC(=O)[C@H](CSSC[C@@H](C(=O)N[C@@H](CCCCN)C(=O)N[C@@H](Cc2ccc(O)cc2)C(=O)N[C@H](C(=O)N[C@@H](Cc2ccccc2)C(N)=O)C(C)C)NC(=O)[C@H](Cc2c[nH]c4ccccc24)NC(=O)[C@H](CCCCN)NC(=O)[C@H](Cc2cnc[nH]2)NC(=O)[C@H](CC(C)C)NC(=O)[C@H](CCCNC(=N)N)NC(=O)[C@H](CO)NC3=O)NC(=O)[C@H](CCCCN)NC(=O)[C@H](CC(=O)O)NC(=O)[C@H](CC(N)=O)NC(=O)[C@H](CC(=O)O)NC(=O)[C@@H]2CCCN2C1=O", "note": "[[Leu26]GpTx-1(1-34)] (H-DCLGFMRKCIPDNDKCCRPNLVCSRLHKWCKYVF-NH2; disulfide 2-17, 9-23, 16-30)", "values": [{"measurement": "pIC50", "setting": "hNav1.7 [1]", "value": 8.52}, {"measurement": "pIC50", "setting": "hNav1.5 [3]", "value": 5.30}, {"measurement": "pIC50", "setting": "hNav1.3", "value": 7.64}]}
{"smiles": "CC[C@H](C)[C@@H]1NC(=O)[C@@H]2CSSC[C@@H]3NC(=O)[C@H](C(C)C)NC(=O)[C@H](CC(C)C)NC(=O)[C@H](CC(N)=O)NC(=O)[C@@H]4CCCN4C(=O)[C@H](CCCNC(=N)N)NC(=O)[C@H](CSSC[C@H](NC(=O)[C@@H](N)CC(=O)O)C(=O)N[C@@H](CC(C)C)C(=O)NCC(=O)N[C@@H](Cc4ccccc4)C(=O)N[C@@H](CCSC)C(=O)N[C@@H](CCCNC(=N)N)C(=O)N[C@@H](CCCCN)C(=O)N2)NC(=O)[C@H](CSSC[C@@H](C(=O)N[C@@H](CCCCN)C(=O)N[C@@H](Cc2ccc(O)cc2)C(=O)N[C@H](C(=O)N[C@@H](Cc2ccccc2)C(N)=O)C(C)C)NC(=O)[C@H](Cc2c[nH]c4ccccc24)NC(=O)[C@H](CCCCN)NC(=O)[C@H]([C@@H](C)O)NC(=O)[C@H](CCCCN)NC(=O)[C@H](CCCNC(=N)N)NC(=O)[C@H](CO)NC3=O)NC(=O)[C@H](CCCCN)NC(=O)[C@H](CC(=O)O)NC(=O)[C@H](CC(N)=O)NC(=O)[C@H](CC(=O)O)NC(=O)[C@@H]2CCCN2C1=O", "note": "[[Lys26;Thr27]GpTx-1(1-34)] (H-DCLGFMRKCIPDNDKCCRPNLVCSRKTKWCKYVF-NH2; disulfide 2-17, 9-23, 16-30)", "values": [{"measurement": "pIC50", "setting": "hNav1.7 [1]", "value": 8.40}, {"measurement": "pIC50", "setting": "hNav1.5 [3]", "value": 5.86}, {"measurement": "pIC50", "setting": "hNav1.3", "value": 7.80}]}
{"smiles": "CC[C@H](C)[C@@H]1NC(=O)[C@@H]2CSSC[C@@H]3NC(=O)[C@H](C(C)C)NC(=O)[C@H](CC(C)C)NC(=O)[C@H](CC(N)=O)NC(=O)[C@@H]4CCCN4C(=O)[C@H](Cc4c[nH]c5ccccc45)NC(=O)[C@H](CSSC[C@H](NC(=O)[C@@H](N)CC(=O)O)C(=O)N[C@@H](CC(C)C)C(=O)NCC(=O)N[C@@H](Cc4ccccc4)C(=O)N[C@@H](CCSC)C(=O)N[C@@H](CCCNC(=N)N)C(=O)N[C@@H](CCCCN)C(=O)N2)NC(=O)[C@H](CSSC[C@@H](C(=O)N[C@@H](CCCCN)C(=O)N[C@@H](Cc2ccc(O)cc2)C(=O)N[C@H](C(=O)N[C@@H](Cc2ccccc2)C(N)=O)C(C)C)NC(=O)[C@H](Cc2c[nH]c4ccccc24)NC(=O)[C@H](CCCCN)NC(=O)[C@H](Cc2c[nH]cn2)NC(=O)[C@H]([C@@H](C)O)NC(=O)[C@H](CCCNC(=N)N)NC(=O)[C@H](CO)NC3=O)NC(=O)[C@H](CCCCN)NC(=O)[C@H](CC(=O)O)NC(=O)[C@H](CC(N)=O)NC(=O)[C@H](CC(=O)O)NC(=O)[C@@H]2CCCN2C1=O", "note": "[[Trp18]GpTx-1(1-34)] (H-DCLGFMRKCIPDNDKCCWPNLVCSRTHKWCKYVF-NH2; disulfide 2-17, 9-23, 16-30)", "values": [{"measurement": "pIC50", "setting": "hNav1.7 [1]", "value": 7.62}, {"measurement": "pIC50", "setting": "hNav1.5 [3]", "value": "< 5.00"}, {"measurement": "pIC50", "setting": "hNav1.3", "value": 7.38}]}
{"smiles": "CC[C@H](C)[C@@H]1NC(=O)[C@@H]2CSSC[C@@H]3NC(=O)[C@H](C(C)C)NC(=O)[C@H](CC(C)C)NC(=O)[C@H](CC(N)=O)NC(=O)[C@@H]4CCCN4C(=O)[C@H](CCCNC(=N)N)NC(=O)[C@H](CSSC[C@H](NC(=O)[C@@H](N)CC(=O)O)C(=O)N[C@@H](CC(C)C)C(=O)NCC(=O)N[C@@H](Cc4ccccc4)C(=O)N[C@@H](CCSC)C(=O)N[C@@H](CCCNC(=N)N)C(=O)N[C@@H](CCCCN)C(=O)N2)NC(=O)[C@H](CSSC[C@@H](C(=O)N[C@@H](CCCCN)C(=O)N[C@@H](Cc2ccc(O)cc2)C(=O)N[C@@H](Cc2ccc(I)cc2)C(=O)N[C@@H](Cc2ccccc2)C(N)=O)NC(=O)[C@H](Cc2c[nH]c4ccccc24)NC(=O)[C@H](CCCCN)NC(=O)[C@H](Cc2c[nH]cn2)NC(=O)[C@H]([C@@H](C)O)NC(=O)[C@H](CCCNC(=N)N)NC(=O)[C@H](CO)NC3=O)NC(=O)[C@H](CCCCN)NC(=O)[C@H](CC(=O)O)NC(=O)[C@H](CC(N)=O)NC(=O)[C@H](CC(=O)O)NC(=O)[C@@H]2CCCN2C1=O", "note": "[[pI-Phe33]GpTx-1(1-34)] (H-DCLGFMRKCIPDNDKCCRPNLVCSRTHKWCKY[Phe(4-I)]F-NH2; disulfide 2-17, 9-23, 16-30)", "values": [{"measurement": "pIC50", "setting": "hNav1.7 [1]", "value": 7.59}, {"measurement": "pIC50", "setting": "hNav1.5 [3]", "value": 4.98}, {"measurement": "pIC50", "setting": "hNav1.3", "value": 7.46}]}
